We go through 17 compounds from patent US9242941B2, “Alkyl, fluoroalkyl-1,4-benzodiazepinone compounds” (BRISTOL-MYERS SQUIBB COMPANY, priority 2012, dated 2016).

A value given as a limit tells only on which side of the number the result lay.

A short description of data set [1]: human metabolic stability half-life assay. The conditions noted are these: microsomes, human liver microsomes. As for the experimental part:
Metabolic Stability Half-Life Panel
Incubation with Liver Microsomes
(Microsomes from liver hold many membrane-bound enzymes, among them those of drug oxidation.)

Another data set has as its system human Notch 1. The experiment in a line: Notch-CBF1 Transactivation Assay (Notch 1). Type of data set: cell-based. As to conditions: read-out: Notch 1 IC50; Notch-CBF1 transactivation luciferase assay in transfected HeLa cells; some values are an average of N experiments. From the text:
(§1) Notch-CBF1 Transactivation Assay
(§2) The Notch-CBF1 (C-promoter binding factor I) cell based transactivation assay is based on the ability of the released Notch intracellular domain fragments (NICDs) to function as transcription factors in conjunction with CBF1 and other nuclear factors. Luciferase assays were used to measure the antagonism of Notch-CBF1 transcriptional activity. HeLa cervical cancer cells are transiently co-transfected with pCDNA3.1/Hygro plasmids containing truncated Notch 1, Notch 2, Notch 3, or Notch 4 receptors and a PGL3 luciferase reporter vector containing 4 copies of CBF1 binding site. The cells were then tested for Notch-CBF1 activity in the absence or presence of test compounds. HeLa cells, maintained in DMEM (high glucose with HEPES), 1× glutamine/penicillin/streptomycin and 10% Fetal Bovine serum, were transiently transfected in a T175 Flask (4.5×10^6 cells/flask) using the Monster Transfection Kit (Minis #MIR2906) according to manufacturers specifications. Table 13 denotes respective DNA quantity for the transfections.
(§3) Assay media (5 μL) containing test compounds in final concentrations ranging from 5 μM to 8.4×10^−5 μM (3 fold serial dilutions) were added to the cells and the cell plates were then incubated for 18 hours at 37° C. and 5% CO2. Control wells contained DMSO vehicle (total counts) or 0.5 μM of an in-house small molecule inhibitor (background counts). Duplicates were used for each sample. Luciferase activity was measured after a 20-minute incubation with 50 μl STEADY-GLO® luciferase reagents according to manufacturer's specifications (Promega, Cat. #E2550) and analyzed by Envision plate reader (PerkinElmer, Boston, Mass.).
(§4) The antagonist effect of compounds was expressed as 100×[1−(average sample−average background)/(average total−average background)] where sample is the luciferase activity in the presence of test compound, background is equal to the luciferase activity in the presence of the small molecule inhibitor control and the total is signal induced in DMSO wells.

Another data set deals with human Notch 3. The experiment in a line: Notch-CBF1 Transactivation Assay (Notch 3). As to conditions: read-out: Notch 3 IC50; Notch-CBF1 transactivation luciferase assay in transfected HeLa cells; some values are an average of N experiments. Type of data set: cell-based.
Excerpt: as §1, §2, §3, §4

Setting [2] is: pH 7.4, CYP-mediated metabolic stability half life, NADPH-dependent.
[3] abbreviates: pH 7.4, HLM (t1/2, min), CYP-mediated (NADPH-dependent), 0.5 μM compound, 45 min time course, some values are an average of N experiments.

For `C=CC[C@H](C(N)=O)[C@@H](CC(C)C)C(=O)N[C@H]1N=C(c2ccccc2)c2cc(Cl)ccc2N(C)C1=O` [Comparative Compound 57, reference compound], in data set [1] (setting [2]), the half-life – broadly, the time in which the quantity being followed falls by half – at 0.5 µM was at most 9 min.

As for `CCCC[C@H](C(N)=O)[C@@H](CC(C)C)C(=O)N[C@H]1N=C(c2ccc(Cl)cc2)c2ccccc2N(C)C1=O` [Comparative Compound 58, reference compound], the half-life at 0.5 µM in data set [1] (setting [2]) is at most 9 min.

Turning to `C=CC[C@H](C(N)=O)[C@@H](CC(C)C)C(=O)N[C@H]1N=C(c2ccccc2)c2ccccc2N(CCC)C1=O` [Comparative Compound 59, reference compound], the half-life at 0.5 µM in data set [1] (setting [2]) was at most 9 min.

With `COc1cccc2c1NC(=O)[C@@H](NC(=O)[C@H](CCC(F)(F)F)[C@H](CC1CC1)C(N)=O)N=C2c1cccc(C(F)(F)F)c1` [Example 2, (2R,3S)-3-(Cyclopropylmethyl)-N-((3S)-9-methoxy-2-oxo-5-(3-(trifluoromethyl)phenyl)-2,3-dihydro-1H-1,4-benzodiazepin-3-yl)-2-(3,3,3-trifluoropropyl)succinamide], the values for the IC50 in the data set with human Notch 1 and in the data set with human Notch 3 were 1.7 nM and 1.5 nM, respectively. The values for the half-life at 0.5 µM in data set [1] (setting [2]) and in data set [1] (setting [3]) were at least 30 min and 46 min, respectively.

As to `Cc1cc(F)cc(C2=N[C@H](NC(=O)[C@H](CCC(F)(F)F)[C@H](CC3CC3)C(N)=O)C(=O)Nc3c(Cl)cccc32)c1` [Example 3, (2R,3S)—N-((3S)-9-Chloro-5-(3-fluoro-5-methylphenyl)-2-oxo-2,3-dihydro-1H-benzo[e][1,4]diazepin-3-yl)-3-(cyclopropylmethyl)-2-(3,3,3-trifluoropropyl)succinamide], the IC50 (in general, the point on the concentration scale where inhibition reaches its midpoint) amounted to 5.1 nM in the data set with human Notch 1 and 7.5 nM in the data set with human Notch 3. The half-life at 0.5 µM in data set [1] (setting [2]) was at least 30 min; in data set [1] (setting [3]) it was 77 min.

For the compound `COc1cccc2c1NC(=O)[C@@H](NC(=O)[C@H](CCC(F)(F)F)[C@H](CC1CC1)C(N)=O)N=C2c1cccc(F)c1` [Example 4, (2R,3S)-3-(Cyclopropylmethyl)-N-((3S)-5-(3-fluorophenyl)-9-methoxy-2-oxo-2,3-dihydro-1H-1,4-benzodiazepin-3-yl)-2-(3,3,3-trifluoropropyl)succinamide], the IC50 stood at 4.2 nM in the data set on human Notch 1 and 8.1 nM in the data set with human Notch 3. The half-life at 0.5 µM in data set [1] (setting [2]) is at least 30 min; in data set [1] (setting [3]), 83 min.

Turning to `NC(=O)[C@@H](CC1CC1)[C@@H](CCC(F)(F)F)C(=O)N[C@H]1N=C(c2cccc(F)c2)c2cccc(OC3CC3)c2NC1=O` [Example 5, (2R,3S)-3-(Cyclopropylmethyl)-N-((3S)-9-(cyclopropyloxy)-5-(3-fluorophenyl)-2-oxo-2,3-dihydro-1H-1,4-benzodiazepin-3-yl)-2-(3,3,3-trifluoropropyl)succinamide], the IC50 with human Notch 1 was 5.1 nM; with human Notch 3, 8.9 nM. Moreover, the half-life at 0.5 µM in data set [1] (setting [2]) is at least 30 min; in data set [1] (setting [3]), 74 min.

As for `NC(=O)[C@@H](CC1CC1)[C@@H](CCC(F)(F)F)C(=O)N[C@H]1N=C(c2ccccc2)c2cccc(OC3CC3)c2NC1=O` [Example 6, (2R,3S)-3-(Cyclopropylmethyl)-N-((3S)-9-(cyclopropyloxy)-2-oxo-5-phenyl-2,3-dihydro-1H-1,4-benzodiazepin-3-yl)-2-(3,3,3-trifluoropropyl)succinamide], the 50% inhibitory concentration (IC50) in the data set on human Notch 1 stood at 7.2 nM; with human Notch 3 it was 8.6 nM. Further, the half-life at 0.5 µM in data set [1] (setting [2]) was at least 30 min; in data set [1] (setting [3]), 83 min.

For `NC(=O)[C@@H](CC1CC1)[C@@H](CCC(F)(F)F)C(=O)N[C@H]1N=C(c2ccc(Cl)cc2)c2cccc(C3CC3)c2NC1=O` [Example 7, (2R,3S)—N-((3S)-5-(4-Chlorophenyl)-9-cyclopropyl-2-oxo-2,3-dihydro-1H-1,4-benzodiazepin-3-yl)-3-(cyclopropylmethyl)-2-(3,3,3-trifluoropropyl)succinamide], the half-maximal inhibitory concentration (IC50) stood at 2 nM in the data set with human Notch 1 and 3.3 nM in the data set with human Notch 3. The half-life at 0.5 µM in data set [1] (setting [2]) is at least 30 min; in data set [1] (setting [3]) it was 97 min.

Consider `Cc1cccc(C2=N[C@H](NC(=O)[C@H](CCC(F)(F)F)[C@H](CC3CC3)C(N)=O)C(=O)Nc3c(O)cccc32)c1` [Example 8, (2R,3S)-3-(Cyclopropylmethyl)-N-((3S)-9-hydroxy-5-(3-methylphenyl)-2-oxo-2,3-dihydro-1H-1,4-benzodiazepin-3-yl)-2-(3,3,3-trifluoropropyl)succinamide], for which the IC50 in the data set on human Notch 1 amounted to 5.6 nM; in the data set on human Notch 3 it was 15.7 nM. Also, the half-life at 0.5 µM was at least 30 min in data set [1] (setting [2]) and 37 min in data set [1] (setting [3]).

Take `Cc1cccc2c1NC(=O)[C@@H](NC(=O)[C@H](CCC(F)(F)F)[C@H](CC1CC1)C(N)=O)N=C2c1cccc(C(F)(F)F)c1` [Example 9, (2R,3S)-3-(Cyclopropylmethyl)-N-((3S)-9-methyl-2-oxo-5-(3-(trifluoromethyl)phenyl)-2,3-dihydro-1H-1,4-benzodiazepin-3-yl)-2-(3,3,3-trifluoropropyl)succinamide]: the IC50 in the data set on human Notch 1 was found to be 1.8 nM; with human Notch 3, 4.9 nM. Moreover, the half-life at 0.5 µM in data set [1] (setting [2]) was at least 30 min; in data set [1] (setting [3]) it was 90 min.

Consider `Cc1cccc2c1NC(=O)[C@@H](NC(=O)[C@H](CCC(F)(F)F)[C@H](CC1CC1)C(N)=O)N=C2c1ccccc1` [Example 11, (2R,3S)-3-(Cyclopropylmethyl)-N-((3S)-9-methyl-2-oxo-5-phenyl-2,3-dihydro-1H-1,4-benzodiazepin-3-yl)-2-(3,3,3-trifluoropropyl)succinamide], for which the figures for the IC50 in the data set on human Notch 1 and in the data set with human Notch 3 were 4 nM and 8.7 nM, respectively. Further, the half-life at 0.5 µM in data set [1] (setting [2]) was at least 30 min; in data set [1] (setting [3]), 76 min.

Take `Cc1cccc2c1NC(=O)[C@@H](NC(=O)[C@H](CCC(F)(F)F)[C@H](CC1CC1)C(N)=O)N=C2c1ccc(F)cc1` [Example 12, (2R,3S)-3-(Cyclopropylmethyl)-N-((3S)-5-(4-fluorophenyl)-9-methyl-2-oxo-2,3-dihydro-1H-1,4-benzodiazepin-3-yl)-2-(3,3,3-trifluoropropyl)succinamide]: the half-maximal inhibitory concentration (IC50) with human Notch 1 was found to be 6.9 nM; in the data set with human Notch 3, 28.3 nM. Further, the half-life at 0.5 µM is at least 30 min in data set [1] (setting [2]) and 104 min in data set [1] (setting [3]).

`Cc1ccccc1C1=N[C@H](NC(=O)[C@H](CCC(F)(F)F)[C@H](CC2CC2)C(N)=O)C(=O)Nc2c(Cl)cccc21` [Example 13, (2R,3S)—N-((3S)-9-Chloro-5-(2-methylphenyl)-2-oxo-2,3-dihydro-1H-1,4-benzodiazepin-3-yl)-3-(cyclopropylmethyl)-2-(3,3,3-trifluoropropyl)succinamide]: the IC50 with human Notch 1 was found to be 2.9 nM; in the data set with human Notch 3 it was 5.1 nM. Further, the half-life at 0.5 µM is at least 30 min in data set [1] (setting [2]) and over 120 min in data set [1] (setting [3]).

Turning to `NC(=O)[C@@H](CC1CC1)[C@@H](CCC(F)(F)F)C(=O)N[C@H]1N=C(c2ccccc2)c2cccc(C3CC3)c2NC1=O` [Example 14, (2R,3S)-3-(Cyclopropylmethyl)-N-(9-cyclopropyl-2-oxo-5-phenyl-2,3-dihydro-1H-1,4-benzodiazepin-3-yl)-2-(3,3,3-trifluoropropyl)succinamide], the IC50 in the data set with human Notch 1 worked out at 4.3 nM; with human Notch 3, 5.1 nM. Besides, the half-life at 0.5 µM was at least 30 min in data set [1] (setting [2]) and 41 min in data set [1] (setting [3]).

In the case of `CCC[C@H](C(N)=O)[C@@H](CCC(F)(F)F)C(=O)N[C@H]1N=C(c2ccccc2)c2cccc(C)c2NC1=O` [Example 15, (2R,3S)—N-((3S)-9-Methyl-2-oxo-5-phenyl-2,3-dihydro-1H-1,4-benzodiazepin-3-yl)-3-propyl-2-(3,3,3-trifluoropropyl)succinamide], the IC50 in the data set with human Notch 1 is 12.7 nM; in the data set with human Notch 3, 9.3 nM. For the same compound, the half-life at 0.5 µM in data set [1] (setting [2]) was at least 30 min; in data set [1] (setting [3]), 40 min.

With `Cc1ccc(C2=N[C@H](NC(=O)[C@H](CCC(F)(F)F)[C@H](CC3CC3)C(N)=O)C(=O)Nc3c(F)cccc32)cc1` [Example 16, (2R,3S)-3-(Cyclopropylmethyl)-N-((3S)-9-fluoro-5-(4-methylphenyl)-2-oxo-2,3-dihydro-1H-1,4-benzodiazepin-3-yl)-2-(3,3,3-trifluoropropyl)succinamide], the 50% inhibitory concentration (IC50) in the data set with human Notch 1 worked out at 3.8 nM; in the data set with human Notch 3 it was 16 nM. Also, the values for the half-life at 0.5 µM in data set [1] (setting [2]) and in data set [1] (setting [3]) were at least 30 min and 75 min, respectively.
